# Values quoted from earlier work as cited in patent publication US20060246133A1, “Controlled release pharmaceutical compositions of liothyronine and methods of making and using the same” (priority 2005, published 2006).
# Details: when administered in an immediate release form
structure (smiles),measurement,value
N[C@@H](Cc1cc(I)c(Oc2ccc(O)c(I)c2)c(I)c1)C(=O)O [liothyronine],half-life,about 10 hours
